Results: PubChem BioAssay (NCI)
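Five concentrations, 48 hours, 96-well plates. TGI: concentration producing complete growth inhibition.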 Activity calls are given as the source filed them. Cut-off read from the data, not from the text of the source: active = GI50 below about 0.43 µM; inactive = the rest.

Assays:
Assay in all cases: DTP human tumour cell line panel, 48 h
PC-3 prostate = test system: PC-3 prostate
MOLT-4 leukemia = test system: MOLT-4 leukemia
LOX IMVI melanoma = test system: LOX IMVI melanoma
SR leukemia = test system: SR leukemia
OVCAR-3 ovarian = test system: OVCAR-3 ovarian
SW-620 colon = test system: SW-620 colon
HCT-116 colon = test system: HCT-116 colon
CCRF-CEM leukemia = test system: CCRF-CEM leukemia
SF-295 CNS = test system: SF-295 CNS
UACC-257 melanoma = test system: UACC-257 melanoma
IGROV1 ovarian = test system: IGROV1 ovarian
NCI/ADR-RES ovarian = test system: NCI/ADR-RES ovarian
MCF7 breast = test system: MCF7 breast
RPMI-8226 leukemia = test system: RPMI-8226 leukemia
TK-10 renal = test system: TK-10 renal
OVCAR-5 ovarian = test system: OVCAR-5 ovarian
UO-31 renal = test system: UO-31 renal
MDA-N = test system: MDA-N
HCT-15 colon = test system: HCT-15 colon
786-0 renal = test system: 786-0 renal
EKVX NSCLC = test system: EKVX NSCLC
HCC-2998 colon = test system: HCC-2998 colon
SK-MEL-2 melanoma = test system: SK-MEL-2 melanoma
A498 renal = test system: A498 renal
SF-268 CNS = test system: SF-268 CNS
SN12C renal = test system: SN12C renal
SK-MEL-28 melanoma = test system: SK-MEL-28 melanoma
HL-60(TB) leukemia = test system: HL-60(TB) leukemia
OVCAR-8 ovarian = test system: OVCAR-8 ovarian
M14 melanoma = test system: M14 melanoma
HT29 colon = test system: HT29 colon
T-47D breast = test system: T-47D breast
NCI-H23 lung = test system: NCI-H23 lung
DU-145 prostate = test system: DU-145 prostate
BT-549 breast = test system: BT-549 breast
NCI-H460 lung = test system: NCI-H460 lung
NCI-H226 lung = test system: NCI-H226 lung
CAKI-1 renal = test system: CAKI-1 renal
SNB-19 CNS = test system: SNB-19 CNS
MDA-MB-435 = test system: MDA-MB-435
SNB-75 CNS = test system: SNB-75 CNS
COLO 205 colon = test system: COLO 205 colon
SF-539 CNS = test system: SF-539 CNS
ACHN renal = test system: ACHN renal
HOP-92 NSCLC = test system: HOP-92 NSCLC
K-562 leukemia = test system: K-562 leukemia
SK-OV-3 ovarian = test system: SK-OV-3 ovarian
HS 578T breast = test system: HS 578T breast
MALME-3M melanoma = test system: MALME-3M melanoma
OVCAR-4 ovarian = test system: OVCAR-4 ovarian
KM12 colon = test system: KM12 colon
A549 NSCLC = test system: A549 NSCLC
RXF 393 renal = test system: RXF 393 renal
UACC-62 melanoma = test system: UACC-62 melanoma
NCI-H522 lung = test system: NCI-H522 lung
HOP-62 NSCLC = test system: HOP-62 NSCLC
U251 CNS = test system: U251 CNS
SK-MEL-5 melanoma = test system: SK-MEL-5 melanoma

Measured: TGI

COC(=O)c1nc2c(C)c(O)c(Oc3c(C)c(O)c(O)c([C@H](C)CCC=C(C)C)c3O)c([C@H](C)CCC=C(C)C)c2o1
inactive: PC-3 prostate | MOLT-4 leukemia | LOX IMVI melanoma | SR leukemia | OVCAR-3 ovarian | SW-620 colon | HCT-116 colon | CCRF-CEM leukemia | SF-295 CNS | UACC-257 melanoma | IGROV1 ovarian | NCI/ADR-RES ovarian | MCF7 breast | RPMI-8226 leukemia | TK-10 renal | OVCAR-5 ovarian | UO-31 renal | MDA-N | HCT-15 colon | 786-0 renal | EKVX NSCLC | HCC-2998 colon | SK-MEL-2 melanoma | A498 renal | SF-268 CNS | SN12C renal | SK-MEL-28 melanoma | HL-60(TB) leukemia | OVCAR-8 ovarian | M14 melanoma | HT29 colon | T-47D breast | NCI-H23 lung | DU-145 prostate | BT-549 breast | NCI-H460 lung | NCI-H226 lung | CAKI-1 renal | SNB-19 CNS | MDA-MB-435 | SNB-75 CNS | COLO 205 colon | SF-539 CNS | ACHN renal | HOP-92 NSCLC | K-562 leukemia | SK-OV-3 ovarian | HS 578T breast | MALME-3M melanoma | OVCAR-4 ovarian | KM12 colon | A549 NSCLC

CCOC(=O)CCC(C(=O)OCC)n1nnc2ccc(Nc3c(C)[n+]([O-])c4ccc(Cl)cc4[n+]3[O-])cc21 (stereo not drawn)
> 100 µM: PC-3 prostate | MOLT-4 leukemia | LOX IMVI melanoma | SR leukemia | OVCAR-3 ovarian | SW-620 colon | HCT-116 colon | RXF 393 renal | CCRF-CEM leukemia | SF-295 CNS | IGROV1 ovarian | UACC-62 melanoma | NCI/ADR-RES ovarian | TK-10 renal | OVCAR-5 ovarian | UO-31 renal | MDA-N | HCT-15 colon | 786-0 renal | SK-MEL-2 melanoma | A498 renal | SF-268 CNS | SN12C renal | HL-60(TB) leukemia | OVCAR-8 ovarian | M14 melanoma | HT29 colon | T-47D breast | NCI-H23 lung | NCI-H522 lung | DU-145 prostate | HOP-62 NSCLC | BT-549 breast | U251 CNS | NCI-H460 lung | CAKI-1 renal | SNB-19 CNS | SK-MEL-5 melanoma | MDA-MB-435 | SNB-75 CNS | COLO 205 colon | SF-539 CNS | ACHN renal | HOP-92 NSCLC | K-562 leukemia | SK-OV-3 ovarian | HS 578T breast | MALME-3M melanoma | OVCAR-4 ovarian | KM12 colon | A549 NSCLC
69.3 µM: EKVX NSCLC
50.4 µM: MCF7 breast
37.1 µM: UACC-257 melanoma
83.7 µM: NCI-H226 lung
88.3 µM: RPMI-8226 leukemia
